# According to paper PMC9706563, “Development of Macrocyclic PRMT5–Adaptor Protein Interaction Inhibitors” (Journal of Medicinal Chemistry, 2022):
# Target: T1, PRMT5-MEP50 (Homo sapiens, UniProt O14744)
# T1 construct: The compounds were tested by means of FP with the full-length PRMT5-MEP50 complex; made in house
# Assay: Direct binding fluorescence polarization (FP) assay of FITC-labeled peptides
# Conditions: FITC-labeled peptide 1 nM, PRMT5-MEP50 titrated, read-out: KD
# Method: The assay was performed in a buffer of 50 mM 4-(2-hydroxyethyl)-1-piperazineethanesulfonic acid (HEPES), 250 mM NaCl, 1 mM tris(2-carboxyethyl)phosphine (TCEP), and 0.01% (v/v) Tween 20, pH 8.0, in black, 384-well plates with a total volume of 10 μL per well. […] The plates were incubated at room temperature for 1 to 2 h and analyzed on a plate reader using 485 nm excitation and 535 nm emission wavelength. The assay was performed in triplicate.
# T1 sequence (O14744 whole entry): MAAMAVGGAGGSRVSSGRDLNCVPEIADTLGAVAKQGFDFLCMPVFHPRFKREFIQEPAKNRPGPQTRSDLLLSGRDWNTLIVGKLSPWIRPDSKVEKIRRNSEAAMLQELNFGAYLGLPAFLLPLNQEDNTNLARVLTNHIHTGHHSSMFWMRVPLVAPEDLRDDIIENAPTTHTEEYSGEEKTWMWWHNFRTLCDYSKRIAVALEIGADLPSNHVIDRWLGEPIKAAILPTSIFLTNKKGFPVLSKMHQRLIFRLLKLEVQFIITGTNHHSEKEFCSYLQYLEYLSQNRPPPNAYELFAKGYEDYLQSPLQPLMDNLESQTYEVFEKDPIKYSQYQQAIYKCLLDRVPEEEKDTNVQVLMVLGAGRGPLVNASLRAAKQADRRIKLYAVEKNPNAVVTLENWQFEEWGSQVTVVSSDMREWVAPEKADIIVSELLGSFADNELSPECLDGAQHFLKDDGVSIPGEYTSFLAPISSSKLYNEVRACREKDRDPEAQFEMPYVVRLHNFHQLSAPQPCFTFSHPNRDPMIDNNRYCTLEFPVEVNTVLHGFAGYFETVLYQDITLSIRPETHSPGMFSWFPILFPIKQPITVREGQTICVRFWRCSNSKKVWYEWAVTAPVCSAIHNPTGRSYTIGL
# T1 sequence (Q9BQA1 whole entry partner): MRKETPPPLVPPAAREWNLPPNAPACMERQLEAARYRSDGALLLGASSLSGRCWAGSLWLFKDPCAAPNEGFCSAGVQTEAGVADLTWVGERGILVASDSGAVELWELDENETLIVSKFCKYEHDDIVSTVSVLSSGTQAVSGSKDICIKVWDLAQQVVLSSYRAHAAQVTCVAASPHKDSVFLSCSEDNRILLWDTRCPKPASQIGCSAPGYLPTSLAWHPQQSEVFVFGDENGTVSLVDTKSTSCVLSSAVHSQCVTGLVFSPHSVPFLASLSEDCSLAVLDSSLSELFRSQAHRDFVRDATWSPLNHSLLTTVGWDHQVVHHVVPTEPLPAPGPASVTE
row,Kd [µM],Compound
1,0.719 ± 0.041,CC(C)[C@H](NC(=O)[C@H](CCCNC(=N)N)NC(=O)[C@H](CO)NC(=O)COCCOCCNC(=S)Nc1ccc2c(c1)C(=O)OC21c2ccc(O)cc2Oc2cc(O)ccc21)C(=O)N[C@H](C(=O)N1CCC[C@H]1C(=O)NC1CC=CC[C@@H](C(=O)N[C@@H](CC(=O)O)C(=O)N[C@@H](C)C(=O)N[C@@H](CC(=O)O)C(N)=O)NC(=O)[C@H](Cc2ccccc2)NC(=O)[C@H](CCC(N)=O)NC1=O)C(C)C (stereo in doubt) [Compound 13]
2,0.43 ± 0.096,CC(=O)N[C@H](C(=O)N1CCC[C@H]1C(=O)NC1CCCCC[C@@H](C(=O)N[C@@H](CC(=O)O)C(=O)N[C@@H](C)C(=O)N[C@@H](CC(=O)O)C(=O)N[C@@H](CCCCNC(=S)Nc2ccc3c(c2)C(=O)OC32c3ccc(O)cc3Oc3cc(O)ccc32)C(N)=O)NC(=O)[C@H](Cc2ccccc2)NC(=O)[C@H](CCC(N)=O)NC1=O)C(C)C (stereo in doubt) [Compound 21]
3,> 2,CC(=O)NC1CCCCC[C@@H](C(=O)N[C@@H](CC(=O)O)C(=O)N[C@@H](C)C(=O)N[C@@H](CC(C(=O)O)C(=O)O)C(=O)N[C@@H](CCCCNC(=S)Nc2ccc3c(c2)C(=O)OC32c3ccc(O)cc3Oc3cc(O)ccc32)C(N)=O)NC(=O)[C@H](Cc2ccc([N+](=O)[O-])cc2)NC(=O)[C@H](CCC(N)=O)NC1=O (stereo in doubt) [Compound 51]

# Same assay, conditions: supplementary CSV, read-out: PRMT5-MEP50 Kd
row,Kd [µM],Compound
1,> 2,CC(C)[C@H](NC(=O)[C@H](CCCNC(=N)N)NC(=O)[C@H](CO)NC(=O)COCCOCCNC(=S)Nc1ccc2c(c1)C(=O)OC21c2ccc(O)cc2Oc2cc(O)ccc21)C(=O)N[C@H](C(=O)N1CCC[C@H]1C(=O)NC1CNC(=O)C[C@@H](C(=O)N[C@@H](CC(=O)O)C(=O)N[C@@H](C)C(=O)N[C@@H](CC(=O)O)C(N)=O)NC(=O)[C@H](Cc2ccccc2)NC(=O)[C@H](CCC(N)=O)NC1=O)C(C)C (stereo in doubt) [Compound 5]
2,> 2,CC(C)[C@H](NC(=O)[C@H](CCCNC(=N)N)NC(=O)[C@H](CO)NC(=O)COCCOCCNC(=S)Nc1ccc2c(c1)C(=O)OC21c2ccc(O)cc2Oc2cc(O)ccc21)C(=O)N[C@H](C(=O)N1CCC[C@H]1C(=O)NC1CNC(=O)CC[C@@H](C(=O)N[C@@H](CC(=O)O)C(=O)N[C@@H](C)C(=O)N[C@@H](CC(=O)O)C(N)=O)NC(=O)[C@H](Cc2ccccc2)NC(=O)[C@H](CCC(N)=O)NC1=O)C(C)C (stereo in doubt) [Compound 6]
3,> 2,CC(=O)N[C@H](C(=O)N1CCC[C@H]1C(=O)NC1CCC=CCC[C@@H](C(=O)N[C@@H](CC(=O)O)C(=O)N[C@@H](C)C(=O)N[C@@H](CC(=O)O)C(=O)N[C@@H](CCCCNC(=S)Nc2ccc3c(c2)C(=O)OC32c3ccc(O)cc3Oc3cc(O)ccc32)C(N)=O)NC(=O)[C@H](Cc2ccccc2)NC(=O)[C@H](CCC(N)=O)NC1=O)C(C)C (stereo in doubt) [Compound 20]
4,> 2,CC(=O)N1CCC[C@H]1C(=O)N[C@H](C(=O)NC1CCCCC[C@@H](C(=O)N[C@@H](Cc2ccc([N+](=O)[O-])cc2)C(=O)N[C@@H](CC(C(=O)O)C(=O)O)C(=O)N[C@@H](CCC(N)=O)C(=O)N[C@@H](CCCCNC(=S)Nc2ccc3c(c2)C(=O)OC32c3ccc(O)cc3Oc3cc(O)ccc32)C(N)=O)NC(=O)[C@H](CC(=O)O)NC(=O)[C@H](C)NC1=O)C(C)C (stereo in doubt) [Compound 52]
5,> 2,CC(C)[C@H](NC(=O)[C@H](CCCNC(=N)N)NC(=O)[C@H](CO)NC(=O)COCCOCCNC(=S)Nc1ccc2c(c1)C(=O)OC21c2ccc(O)cc2Oc2cc(O)ccc21)C(=O)N[C@H](C(=O)N1CCC[C@H]1C(=O)N[C@@H]1CNC(=O)CC[C@H](C(=O)N[C@@H](CC(=O)O)C(=O)N[C@@H](C)C(=O)N[C@@H](CC(=O)O)C(N)=O)NC(=O)[C@H](Cc2ccccc2)NC(=O)[C@H](CCC(N)=O)NC1=O)C(C)C [Compound 10]

# Second part, the compound before the results:
row,Compound,Kd [µM]
1,"CC(C)[C@H](NC(=O)[C@H](CCCNC(=N)N)NC(=O)[C@H](CO)NC(=O)COCCOCCNC(=S)Nc1ccc2c(c1)C(=O)OC21c2ccc(O)cc2Oc2cc(O)ccc21)C(=O)N[C@H](C(=O)N1CCC[C@H]1C(=O)N[C@@H]1CC=CC[C@H](C(=O)N[C@@H](CC(=O)O)C(=O)N[C@@H](C)C(=O)N[C@@H](CC(=O)O)C(N)=O)NC(=O)[C@H](Cc2ccccc2)NC(=O)[C@H](CCC(N)=O)NC1=O)C(C)C (single isomer, unassigned) [15 (isomer 1)]",> 2
2,"CC(=O)N[C@H](C(=O)N1CCC[C@H]1C(=O)N[C@@H]1CC=CCC[C@@H](C(=O)N[C@@H](CC(=O)O)C(=O)N[C@@H](C)C(=O)N[C@@H](CC(=O)O)C(=O)N[C@@H](CCCCNC(=S)Nc2ccc3c(c2)C(=O)OC32c3ccc(O)cc3Oc3cc(O)ccc32)C(N)=O)NC(=O)[C@H](Cc2ccccc2)NC(=O)[C@H](CCC(N)=O)NC1=O)C(C)C (single isomer, unassigned) [18 (isomer 1)]",0.352 ± 0.049
3,CC(C)[C@H](NC(=O)[C@H](CCCNC(=N)N)NC(=O)[C@H](CO)NC(=O)COCCOCCNC(=S)Nc1ccc2c(c1)C(=O)OC21c2ccc(O)cc2Oc2cc(O)ccc21)C(=O)N[C@H](C(=O)N1CCC[C@H]1C(=O)NC1CCNC(=O)C[C@@H](C(=O)N[C@@H](CC(=O)O)C(=O)N[C@@H](C)C(=O)N[C@@H](CC(=O)O)C(N)=O)NC(=O)[C@H](Cc2ccccc2)NC(=O)[C@H](CCC(N)=O)NC1=O)C(C)C (stereo in doubt) [Compound 7],> 2
4,CC(C)[C@H](NC(=O)[C@H](CCCNC(=N)N)NC(=O)[C@H](CO)NC(=O)COCCOCCNC(=S)Nc1ccc2c(c1)C(=O)OC21c2ccc(O)cc2Oc2cc(O)ccc21)C(=O)N[C@H](C(=O)N1CCC[C@H]1C(=O)NC1CCNC(=O)CC[C@@H](C(=O)N[C@@H](CC(=O)O)C(=O)N[C@@H](C)C(=O)N[C@@H](CC(=O)O)C(N)=O)NC(=O)[C@H](Cc2ccccc2)NC(=O)[C@H](CCC(N)=O)NC1=O)C(C)C (stereo in doubt) [Compound 8],> 2
5,CC(=O)N[C@H](C(=O)N1CCC[C@H]1C(=O)NC1CC=CC[C@@H](C(=O)N[C@@H](CC(=O)O)C(=O)N[C@@H](C)C(=O)N[C@@H](CC(=O)O)C(=O)N[C@@H](CCCCNC(=S)Nc2ccc3c(c2)C(=O)OC32c3ccc(O)cc3Oc3cc(O)ccc32)C(N)=O)NC(=O)[C@H](Cc2ccccc2)NC(=O)[C@H](CCC(N)=O)NC1=O)C(C)C (stereo in doubt) [Compound 17],0.452 ± 0.001
6,CC(C)[C@H](NC(=O)[C@H](CCCNC(=N)N)NC(=O)[C@H](CO)NC(=O)COCCOCCNC(=S)Nc1ccc2c(c1)C(=O)OC21c2ccc(O)cc2Oc2cc(O)ccc21)C(=O)N[C@H](C(=O)N1CCC[C@H]1C(=O)N[C@@H]1CNC(=O)C[C@H](C(=O)N[C@@H](CC(=O)O)C(=O)N[C@@H](C)C(=O)N[C@@H](CC(=O)O)C(N)=O)NC(=O)[C@H](Cc2ccccc2)NC(=O)[C@H](CCC(N)=O)NC1=O)C(C)C [Compound 9],> 2
7,CC(C)[C@H](NC(=O)[C@H](CCCNC(=N)N)NC(=O)[C@H](CO)NC(=O)COCCOCCNC(=S)Nc1ccc2c(c1)C(=O)OC21c2ccc(O)cc2Oc2cc(O)ccc21)C(=O)N[C@H](C(=O)N1CCC[C@H]1C(=O)N[C@@H]1CCNC(=O)C[C@H](C(=O)N[C@@H](CC(=O)O)C(=O)N[C@@H](C)C(=O)N[C@@H](CC(=O)O)C(N)=O)NC(=O)[C@H](Cc2ccccc2)NC(=O)[C@H](CCC(N)=O)NC1=O)C(C)C [Compound 11],> 2
